Assay results from patent US11479805B2, “Combinatorial single molecule analysis of chromatin” (The General Hospital Corporation, priority 2015, dated 2022).

How the values were obtained:
[1] = test system: control peptides and singly modified peptides; test: Antibody specificity peptide array (dot-blot assay); type: binding; conditions: FIG. 9
Procedure: FIG. 9A-9B. Peptide array confirms high antibody specificity (A-B) Reactivity of H3K27me3 antibody (A) or H3K4me3 antibody (B) with control peptides and singly modified peptides.
To test for antibody specificity, Applicants used a peptide array with unlabeled antibodies (the same lots of antibodies that were labeled by Cell Signaling and used for the imaging) according to the following protocol: array is immersed in 4 ml blocking solution (TBST containing 5% non-fat dried milk) for 4 hours at room temperature. Next, array is washed 3 times with TBST, and primary antibody is added (diluted in TBST 1:25,000). Antibody is incubated over night at 4° C. on a rotor. Then the array is washed 3 times in TBST and the secondary antibody (Active Motif, 100612) is added for 1 hour at room temperature. Array is washed again 3 times in TBST and the signal is detected by FlourChemQ.

[2] = test system: nucleosomes from ESCs; test: Time-lapse TIRF imaging of antibody binding and dissociation on nucleosomes from ESCs; parameters: species or system Mouse; conditions: images every 15 minutes, FIG. 7B-C
Procedure: FIG. 7A-7F. Time-lapse images detect repeated antibody binding and dissociation events. (A) Mono-nucleosomes were extracted from HEK293 cells, labeled and distributed on the surface as described in FIG. 1A. […] Shown are images taken at 15, 30 and 45 minutes after addition of antibodies. (B-F) Nucleosomes from ESCs were distributed on the surface and incubated with antibodies targeting H3K27me3 (B, D, F) or H3K4me3 (C, E). Time lapse images were taken every 15 minutes. A total of 10,000 individual binding events were analyzed for each antibody. (B-C) Number of binding events detected at each time point. Equilibrium of binding and dissociation of antibodies is achieved at 45 minutes for H3K27me3, and 75 minutes for H3K4me3. Later images show mild reduction in signal due to photo bleaching. (D-E) For each nucleosome, the number of binding events by antibody was calculated in a total of 8 images taken during the time course of the experiment (30-135 minutes). Graph depicts a histogram of the number of images in which each nucleosome is bound by the antibody. Due to repeated binding and dissociation events, most of the nucleosomes are bound more than once. […]
(§1) All experiments were performed on a total internal reflection (TIRF) microscope with two lasers, 532 nm/75 mW and 640 nm/40 mW, for fluorescence excitation (Compass 215M, Cube-40C, Coherent). […]

[3] = test system: recombinant unmodified nucleosomes; test: Single-molecule antibody binding to recombinant unmodified nucleosomes; conditions: monitored over time; FIG. 8A
Procedure: FIG. 8A-8B. Low background and high specificity of antibody binding. (A) Recombinant unmodified nucleosomes were prepared as previously described (91), and then ligated to biotinylated, fluorescent adaptors as in FIG. 1A. Binding of fluorescently-labeled H3K27me3 antibodies was monitored over time. […] For comparison, also shown are images of H3K27me3 antibody binding to nucleosomes prepared from HEK293 cells. (B) Western-blot analysis of labeled H3K27me3 peptide (TAMRA, green) bound by H3K27me3 antibodies (Alexa647, red). Fluorescent signal on membrane was visualized using a Typhoon trio+imager (Amersham Biosciences).
Applicants imaged millions of nucleosomes and decoded their modification state. Images are analyzed with Cell Profiler software. […] In contrast, when Applicants treated cells with histone deacetylase inhibitors (HDACi), the fraction of acetylated nucleosomes increased to 7% (FIG. 1C, 1D). Importantly, when Applicants repeated the analysis with recombinant unmodified nucleosomes, just 0.1% of nucleosomes scored (FIG. 1E, 8A). […]
as §1

time at which equilibrium of binding and dissociation of antibodies is achieved [2]: 45 min
binding events on recombinant unmodified nucleosomes [3]: Very few binding events were detected
Substance: H3K27me3 antibody: Tri-Methyl-Histone H3 (Lys27) (C36B11) Rabbit mAb (Alexa Fluor 647 Conjugate), Cell Signaling #12158
reactivity with control peptides and singly modified peptides (target specificity) [1]: very high target specificity and low background
